From patent US20160150784A1, “SYNERGISTIC PESTICIDAL COMPOSITIONS AND RELATED METHODS” (Dow AgroSciences LLC, priority 2013, published 2016)
Several values for one entry are separate records, joined by “and”; a condition that tells them apart may be missing. Identical values can stand only once.

What was measured:
[1] = tested on: diamondback moth, Plutella xylostella; experiment: Cabbage leaf disc bioassay (track sprayer, 400 L/Ha) on second instar diamondback moths, percent control, synergy by Colby's equation; assay type: in vivo; settings: single active
From the text: (§1) The method described in Colby S. R., “Calculating Synergistic and Antagonistic Responses of Herbicide Combinations,” Weeds, 1967, 15, 20-22 was used to determine an existence of synergic effect between the ryanodine receptor modulator compound and the pesticide (I), (II), or any agriculturally acceptable salt thereof in the formulated pesticidal composition. In this method, the percent insect control of the formulated pesticidal composition as observed in the study was compared to the “expected” percent control (E) as calculated by equation (1) (hereinafter “Colby's equation”) below: […]
(§2) where • X is the percentage of control with the first pesticide at a given rate (p), • Y is the percentage of control with the second pesticide at a given rate (q), and • E is the expected control by the first and second pesticide at a rate of p+q.
Bioassays were performed for different active compounds. Cabbage plants with about two to three new-growth—true leaf stage were treated with different pesticides using a track sprayer application at 400 L/Ha spray volume. Three second instar diamondback moths, Plutella xylostella, were infested onto each leaf disc.
Bioassays were performed for different active compounds. Cabbage plants with about two to three new-growth—true leaf stage were treated with different pesticides using a track sprayer at a rate of 400 L/Ha. Three second instar diamondback moths, Plutella xylostella, were infested onto each leaf disc.

[2] = tested on: brown stink bug, Euschistus heros; experiment: Diet bioassay on second-instar nymphs of brown stink bug, percent control, synergy by Colby's equation; assay type: in vivo; settings: single active, dose rate 0.04 weight %
From the text: as §1, §2
The percent control of the pesticidal composition against brown stink bug, Euschistus heros, was determined as the “Observed” action, and compared to those obtained by using about 0.04 weight % of compound II, and using about 0.000156 weight % of cyantraniliprole alone. The “Colby's Expected Action” was calculated using Colby's equation as discussed previously.

Structure (SMILES): CCN(C(=O)CCSCCC(F)(F)F)c1cn(-c2cccnc2)nc1Cl [Compound I, N-(3-chloro-1-(pyridin-3-yl)-1H-pyrazol-4-yl)-N-ethyl-3-((3,3,3-trifluoropropyl)thio)propanamide]
- % Control Three Days After Treatment ([1]; dose rate 0.0025 weight %): 4.35% and 0%

Structure (SMILES): Cc1cc(C(F)(C(F)(F)F)C(F)(F)F)ccc1NC(=O)c1cccc(I)c1C(=O)NC(C)(C)CS(C)(=O)=O [Flubendiamide]
- % Control Three Days After Treatment ([1]; dose rate 0.0003125 weight %): 8.70%

Structure (SMILES): CNC(=O)c1cc(Cl)cc(C)c1NC(=O)c1cc(Br)nn1-c1ncccc1Cl [Chlorantraniliprole, 3-bromo-N-[4-chloro-2-methyl-6-[(methylamino)carbonyl]phenyl]-1-(3-chloro-2-pyridinyl)-1H-pyrazole-5-carboxamide]
- % Control Three Days After Treatment ([1]; dose rate 0.0000347 weight %): 25%
- % Control Three Days After Treatment ([1]; dose rate 0.000104 weight %): 62.5%
- % Control Three Days After Treatment ([1]; dose rate 0.0003125 weight %): 66.67%

Structure (SMILES): CCN(C(=O)CC[S+]([O-])CCC(F)(F)F)c1cn(-c2cccnc2)nc1Cl (stereo not drawn) [Compound II, N-(3-chloro-1-(pyridin-3-yl)-1H-pyrazol-4-yl)-N-ethyl-3-((3,3,3-trifluoropropyl)sulfinyl)propanamide]
- % Control Six Days After Treatment [2]: 0%
